Assay [1] deals with T1, Aurora kinase A (Homo sapiens) (UniProt O14965).
T1 sequence (whole entry): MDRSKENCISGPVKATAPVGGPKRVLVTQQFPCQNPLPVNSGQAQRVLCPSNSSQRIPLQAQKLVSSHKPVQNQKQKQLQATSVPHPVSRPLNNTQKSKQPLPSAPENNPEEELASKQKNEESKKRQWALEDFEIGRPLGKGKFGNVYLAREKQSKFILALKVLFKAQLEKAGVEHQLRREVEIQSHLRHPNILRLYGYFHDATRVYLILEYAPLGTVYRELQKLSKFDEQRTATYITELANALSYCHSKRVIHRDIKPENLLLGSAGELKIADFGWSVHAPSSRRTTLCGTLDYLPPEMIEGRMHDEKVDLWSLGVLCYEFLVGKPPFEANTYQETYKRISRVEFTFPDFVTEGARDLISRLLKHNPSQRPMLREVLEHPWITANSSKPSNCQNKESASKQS
Kind of assay: Binding affinity to wild-type human partial length AURKA (E122 to K401 residues) expressed in mammalian expression system assessed as fraction of unbound kinase to substrate at 10 uM after 1 hr by KinomeScan assay.

In assay [2] the target is Fibroblast growth factor receptor 1 (Homo sapiens) (UniProt P11362). Kind of assay: Binding affinity to wild-type human partial length FGFR1 (P357 to V669 residues) expressed in bacterial expression system assessed as fraction of unbound kinase to substrate at 10 uM after 1 hr by KinomeScan assay.
Chain of Fibroblast growth factor receptor 1 (Homo sapiens) (P11362 22-822 limits assumed): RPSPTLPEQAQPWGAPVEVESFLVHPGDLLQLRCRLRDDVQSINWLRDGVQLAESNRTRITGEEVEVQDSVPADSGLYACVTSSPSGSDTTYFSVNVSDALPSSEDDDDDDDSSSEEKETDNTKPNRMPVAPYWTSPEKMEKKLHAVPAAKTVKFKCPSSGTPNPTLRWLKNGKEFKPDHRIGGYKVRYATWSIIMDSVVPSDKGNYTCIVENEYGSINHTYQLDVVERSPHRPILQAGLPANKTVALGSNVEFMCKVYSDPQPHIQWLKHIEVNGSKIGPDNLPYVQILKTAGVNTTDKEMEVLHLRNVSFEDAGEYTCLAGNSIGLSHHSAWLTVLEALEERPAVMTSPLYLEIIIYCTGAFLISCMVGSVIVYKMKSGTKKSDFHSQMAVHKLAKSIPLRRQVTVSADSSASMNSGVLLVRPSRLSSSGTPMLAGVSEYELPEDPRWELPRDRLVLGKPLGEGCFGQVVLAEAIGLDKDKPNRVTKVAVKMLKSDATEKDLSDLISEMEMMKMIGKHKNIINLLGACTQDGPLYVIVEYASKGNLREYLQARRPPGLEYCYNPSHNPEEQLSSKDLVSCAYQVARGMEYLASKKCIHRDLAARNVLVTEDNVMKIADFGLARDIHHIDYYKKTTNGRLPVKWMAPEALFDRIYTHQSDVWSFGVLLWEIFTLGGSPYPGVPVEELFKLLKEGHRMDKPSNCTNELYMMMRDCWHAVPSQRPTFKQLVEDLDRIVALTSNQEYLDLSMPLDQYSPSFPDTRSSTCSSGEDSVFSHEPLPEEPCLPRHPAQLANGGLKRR
Assay [3] concerns the target Cyclin-dependent kinase 2 (Homo sapiens) (UniProt P24941). Kind of assay: Binding affinity to wild-type human full length CDK2 (M1 to L298 residues) expressed in bacterial expression system assessed as fraction of unbound kinase to substrate at 1 uM after 1 hr by KinomeScan assay.
For assay [4], the target named is T2, Tyrosine-protein kinase Mer (Homo sapiens) (UniProt Q12866).
T2 sequence (whole entry): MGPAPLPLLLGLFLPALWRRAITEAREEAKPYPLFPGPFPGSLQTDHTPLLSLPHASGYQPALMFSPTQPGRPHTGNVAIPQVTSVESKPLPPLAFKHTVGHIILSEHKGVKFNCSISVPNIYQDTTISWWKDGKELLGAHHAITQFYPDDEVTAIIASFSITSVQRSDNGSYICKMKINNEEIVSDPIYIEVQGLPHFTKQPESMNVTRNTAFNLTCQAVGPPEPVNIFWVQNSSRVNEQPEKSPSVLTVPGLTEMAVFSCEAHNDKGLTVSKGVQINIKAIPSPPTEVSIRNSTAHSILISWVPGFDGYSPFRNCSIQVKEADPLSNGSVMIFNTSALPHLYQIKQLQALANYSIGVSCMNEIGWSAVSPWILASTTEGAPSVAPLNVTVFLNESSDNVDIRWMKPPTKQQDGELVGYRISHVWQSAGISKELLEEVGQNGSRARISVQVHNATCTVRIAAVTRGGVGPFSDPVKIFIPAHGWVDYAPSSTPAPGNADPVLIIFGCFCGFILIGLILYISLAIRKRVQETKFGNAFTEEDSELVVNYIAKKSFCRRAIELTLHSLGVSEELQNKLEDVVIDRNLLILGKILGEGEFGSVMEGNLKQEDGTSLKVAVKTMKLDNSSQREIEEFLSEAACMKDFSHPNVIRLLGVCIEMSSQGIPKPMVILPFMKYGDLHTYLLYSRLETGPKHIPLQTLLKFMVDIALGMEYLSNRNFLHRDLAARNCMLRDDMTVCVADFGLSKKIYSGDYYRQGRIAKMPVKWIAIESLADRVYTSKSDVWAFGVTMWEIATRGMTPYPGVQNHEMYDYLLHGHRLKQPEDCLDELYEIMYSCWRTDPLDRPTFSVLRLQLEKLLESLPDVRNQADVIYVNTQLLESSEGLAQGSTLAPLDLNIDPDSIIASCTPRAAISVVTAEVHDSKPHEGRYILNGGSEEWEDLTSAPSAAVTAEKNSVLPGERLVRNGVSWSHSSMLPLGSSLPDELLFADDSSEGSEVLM
Kind of assay: Binding affinity to wild-type partial length human MER (R557 to L884 residues) expressed in bacterial expression system assessed as fraction of unbound kinase to substrate at 0.1 uM after 1 hr by KinomeScan assay.

The target in assay [5] is T1, Aurora kinase A (Homo sapiens). Kind of assay: Binding affinity to wild-type human partial length AURKA (E122 to K401 residues) expressed in mammalian expression system assessed as fraction of unbound kinase to substrate at 0.1 uM after 1 hr by KinomeScan assay.
Assay [6] has as its target Hepatocyte growth factor receptor (Homo sapiens) (UniProt P08581). Kind of assay: Binding affinity to human MET (D1010 to S1367 residues) expressed in bacterial expression system assessed as fraction of unbound kinase to substrate at 10 uM after 1 hr by KinomeScan assay.
For assay [7], the target named is T3, Tyrosine-protein kinase receptor UFO (Homo sapiens, UniProt P30530).
T3 sequence (P30530 whole entry): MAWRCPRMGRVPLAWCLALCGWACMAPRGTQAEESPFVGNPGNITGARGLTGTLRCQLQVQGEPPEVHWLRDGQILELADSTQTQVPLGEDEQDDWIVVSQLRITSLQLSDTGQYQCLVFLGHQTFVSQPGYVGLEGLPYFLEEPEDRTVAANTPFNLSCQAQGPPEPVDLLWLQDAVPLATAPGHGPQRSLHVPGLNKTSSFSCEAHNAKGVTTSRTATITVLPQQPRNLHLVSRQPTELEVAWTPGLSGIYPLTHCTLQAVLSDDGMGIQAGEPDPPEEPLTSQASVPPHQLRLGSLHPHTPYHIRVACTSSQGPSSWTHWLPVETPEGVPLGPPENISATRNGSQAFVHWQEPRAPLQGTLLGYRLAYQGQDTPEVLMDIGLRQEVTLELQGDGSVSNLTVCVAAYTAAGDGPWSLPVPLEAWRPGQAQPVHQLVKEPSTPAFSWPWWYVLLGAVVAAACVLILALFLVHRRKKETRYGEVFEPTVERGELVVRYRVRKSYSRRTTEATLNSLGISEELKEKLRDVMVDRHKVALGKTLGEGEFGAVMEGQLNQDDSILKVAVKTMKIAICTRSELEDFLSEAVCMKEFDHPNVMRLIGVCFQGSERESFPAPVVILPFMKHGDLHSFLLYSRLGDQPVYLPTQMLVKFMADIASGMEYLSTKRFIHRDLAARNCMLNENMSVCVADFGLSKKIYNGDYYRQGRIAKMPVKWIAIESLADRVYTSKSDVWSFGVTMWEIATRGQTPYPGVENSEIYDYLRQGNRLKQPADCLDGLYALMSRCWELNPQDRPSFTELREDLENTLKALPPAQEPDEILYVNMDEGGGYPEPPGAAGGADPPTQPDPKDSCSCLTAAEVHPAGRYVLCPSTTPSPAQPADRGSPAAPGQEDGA
Kind of assay: Inhibition of recombinant His-tagged human Axl (473 to end residues) cytoplasmic domain expressed in insect system using poly (Glu-Ala-Tyr) peptide as substrate after 5 mins in presence of ADP by fluorescence analysis.

In assay [8] the target is Hepatocyte growth factor receptor (Homo sapiens) (UniProt P08581). Kind of assay: Binding affinity to human MET (D1010 to S1367 residues) expressed in bacterial expression system assessed as fraction of unbound kinase to substrate at 1 uM after 1 hr by KinomeScan assay.
Chain of Hepatocyte growth factor receptor (Homo sapiens) (P08581 whole entry, the tested form may be a part): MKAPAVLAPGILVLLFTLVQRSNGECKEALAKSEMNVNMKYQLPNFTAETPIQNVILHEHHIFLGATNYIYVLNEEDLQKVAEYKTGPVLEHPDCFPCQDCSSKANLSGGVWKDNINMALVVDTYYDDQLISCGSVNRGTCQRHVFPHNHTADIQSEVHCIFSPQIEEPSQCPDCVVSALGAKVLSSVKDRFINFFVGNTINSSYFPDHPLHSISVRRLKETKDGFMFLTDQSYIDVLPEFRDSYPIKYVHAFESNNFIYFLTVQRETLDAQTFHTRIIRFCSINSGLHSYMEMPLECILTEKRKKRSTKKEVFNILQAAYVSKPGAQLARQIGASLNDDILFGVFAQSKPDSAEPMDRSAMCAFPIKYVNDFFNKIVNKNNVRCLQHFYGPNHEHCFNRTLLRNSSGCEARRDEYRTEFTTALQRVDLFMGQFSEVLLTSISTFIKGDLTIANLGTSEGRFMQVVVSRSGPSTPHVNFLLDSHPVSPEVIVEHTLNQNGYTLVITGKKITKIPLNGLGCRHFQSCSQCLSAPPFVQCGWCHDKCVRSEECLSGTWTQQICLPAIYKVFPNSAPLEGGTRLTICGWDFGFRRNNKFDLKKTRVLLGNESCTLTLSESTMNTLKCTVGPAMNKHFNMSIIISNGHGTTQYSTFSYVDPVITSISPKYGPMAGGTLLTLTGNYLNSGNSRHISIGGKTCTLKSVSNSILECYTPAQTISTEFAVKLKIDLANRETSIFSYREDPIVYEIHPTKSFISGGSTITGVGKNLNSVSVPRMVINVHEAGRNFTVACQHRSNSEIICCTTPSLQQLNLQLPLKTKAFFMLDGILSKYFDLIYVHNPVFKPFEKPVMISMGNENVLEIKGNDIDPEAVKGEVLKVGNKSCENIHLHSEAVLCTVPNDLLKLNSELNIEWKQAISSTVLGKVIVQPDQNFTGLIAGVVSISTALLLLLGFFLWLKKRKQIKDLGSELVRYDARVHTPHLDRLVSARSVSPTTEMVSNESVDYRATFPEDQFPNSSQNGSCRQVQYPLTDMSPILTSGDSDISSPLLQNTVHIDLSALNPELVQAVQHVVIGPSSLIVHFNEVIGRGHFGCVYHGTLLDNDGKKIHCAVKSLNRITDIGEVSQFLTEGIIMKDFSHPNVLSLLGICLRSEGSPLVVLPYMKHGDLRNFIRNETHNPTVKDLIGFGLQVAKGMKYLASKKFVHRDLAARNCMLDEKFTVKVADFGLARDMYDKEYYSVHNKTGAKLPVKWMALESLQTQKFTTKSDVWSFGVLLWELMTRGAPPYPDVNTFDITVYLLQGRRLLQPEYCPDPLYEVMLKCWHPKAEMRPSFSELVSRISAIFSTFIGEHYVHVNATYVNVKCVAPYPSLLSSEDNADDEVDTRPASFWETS

We go through four compounds from ChEMBL document CHEMBL4261615, “Design, synthesis, biological evaluation and cellular imaging of imidazo[4,5-b]pyridine derivatives as potent and selective TAM inhibitors” (Bioorg Med Chem, 2018).

Where only a bound is given, the exact number is not on record here.

A word on the IC50: it is the midpoint of a concentration-inhibition curve.

For the compound `O=C(Nc1ccc(Oc2ccnc3[nH]cnc23)c(F)c1)c1cccn(-c2ccc(F)cc2)c1=O`, the Activity in assay [1] was 13%; in assay [2] it was 6%; in assay [3], 0%; in assay [4], 87%; in assay [5], 5%; in assay [6], 97%. For the same compound, the Activity in assay [8] was found to be 96%. Also, in assay [7], the IC50 was determined as 0.77 nM.
Take `O=C(Nc1ccc(Oc2c(Br)cnc3[nH]cnc23)c(F)c1)c1cccn(-c2ccc(F)cc2)c1=O`: the Activity in assay [1] was determined as 45%; in assay [2], 11%; in assay [3], 0%; in assay [4] it was 4%; in assay [5], 7%; in assay [6], 96.4%. The Activity in assay [8] was found to be 82%. Further, in assay [7], the IC50 worked out at 2000 nM.
Take `Cc1cnc2[nH]cnc2c1Oc1ccc(NC(=O)c2cccn(-c3ccc(F)cc3)c2=O)cc1F`: the Activity in assay [1] stood at 41%; in assay [2] it was 15%; in assay [3], 0%; in assay [4] it was 17%; in assay [5], 1%; in assay [6], 96.2%. In addition, the Activity in assay [8] came out at 94.5%. The IC50 in assay [7] was more than 100000 nM.
Turning to `CC(C)c1nc2c(Oc3ccc(NC(=O)c4cccn(-c5ccc(F)cc5)c4=O)cc3F)ccnc2[nH]1`, the Activity in assay [1] was 12%; in assay [2] it was 1%; in assay [3] it was 95.5%; in assay [4] it was 92.3%; in assay [5], 1%; in assay [6], 96.6%. In addition, in assay [8], the Activity stood at 96.7%. Further, the IC50 in assay [7] worked out at 70 nM.
